# Calls of active or inactive are those of the source. The rule behind the calls is not given here.
# Assays:
# NSC [1] = assay: Inhibition of thapsigargin-induced cell death in human NSC assessed as cell survival at <=1 uM treated 15 mins prior to thapsigargin addition measured after 24 hrs drug treatment by methylene blue assay; type: functional, cell-based
# NSC [2] = assay: Inhibition of thapsigargin-induced cell death in human NSC assessed as increase in cell survival at >10 uM treated 15 mins prior to thapsigargin addition measured after 24 hrs drug treatment by methylene blue assay; type: functional, cell-based
# HEK-293T [3] = assay: Inhibition of thapsigargin-induced cell death in human HEK293T cells overexpressing human recombinant PAD3 assessed as increase in cell survival at 100 uM treated 15 mins prior to thapsigargin addition measured after 24 hrs drug treatment by methylene blue assay; type: functional, cell-based
# NSC [4] = assay: Cytotoxicity against human NSC assessed as decrease in cell survival at 0.1 to 1000 uM after 24 hrs by methylene blue assay; type: cell-based
# [5] = target: T1, Protein-arginine deiminase type-3 (Homo sapiens) (UniProt Q9ULW8); assay: Inhibition of human recombinant PAD3 expressed in HEK293T cells assessed as conversion of BAEE to sodium benzoyl-L-citrulline at 100 uM by colorimetric analysis; type: cell-based; conditions: HEK-293T
# T1 sequence (whole entry): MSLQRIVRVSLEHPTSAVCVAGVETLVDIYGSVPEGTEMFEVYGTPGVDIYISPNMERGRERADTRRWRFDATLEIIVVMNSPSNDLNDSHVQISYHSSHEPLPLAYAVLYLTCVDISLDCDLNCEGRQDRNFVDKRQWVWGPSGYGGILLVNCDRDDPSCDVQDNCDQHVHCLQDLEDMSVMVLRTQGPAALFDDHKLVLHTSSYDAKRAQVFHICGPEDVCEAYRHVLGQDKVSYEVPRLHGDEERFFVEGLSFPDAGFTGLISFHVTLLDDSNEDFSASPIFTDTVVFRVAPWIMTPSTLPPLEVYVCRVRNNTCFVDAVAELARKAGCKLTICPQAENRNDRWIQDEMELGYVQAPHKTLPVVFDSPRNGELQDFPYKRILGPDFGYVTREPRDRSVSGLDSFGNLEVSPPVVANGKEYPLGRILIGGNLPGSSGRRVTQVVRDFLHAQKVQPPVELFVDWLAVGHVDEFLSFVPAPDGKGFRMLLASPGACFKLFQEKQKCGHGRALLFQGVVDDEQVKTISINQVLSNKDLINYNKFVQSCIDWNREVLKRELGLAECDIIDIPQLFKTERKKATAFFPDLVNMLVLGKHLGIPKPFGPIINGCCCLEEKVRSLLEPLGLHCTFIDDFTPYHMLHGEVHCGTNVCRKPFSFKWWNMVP
# [6] = target: T1, Protein-arginine deiminase type-3 (Homo sapiens); assay: Competitive reversible inhibition of human recombinant PAD3 expressed in HEK293T cells assessed as rate of citrullination of BAEE at 10 to 100 uM by Michaelis-Menten equation analysis using colorimetry; type: cell-based; conditions: HEK-293T
# HEK-293T [7] = assay: Inhibition of thapsigargin-induced cell death in human HEK293T cells overexpressing human recombinant PAD3 assessed as increase in cell survival at 10 uM treated 15 mins prior to thapsigargin addition measured after 24 hrs drug treatment by methylene blue assay; type: functional, cell-based
# [8] = target: T1, Protein-arginine deiminase type-3 (Homo sapiens); assay: Inhibition of human recombinant PAD3 expressed in HEK293T cells assessed as conversion of BAEE to sodium benzoyl-L-citrulline up to 1 mM by colorimetric analysis; type: cell-based; conditions: HEK-293T
# NSC [9] = assay: Inhibition of thapsigargin-induced cell death in human NSC assessed as increase in cell survival at 100 nM treated 15 mins prior to thapsigargin addition measured after 24 hrs drug treatment by methylene blue assay; type: functional, cell-based
# NSC [10] = assay: Inhibition of thapsigargin-induced cell death in human NSC assessed as increase in cell survival up to 1 mM treated 15 mins prior to thapsigargin addition measured after 24 hrs drug treatment by methylene blue assay; type: functional, cell-based
SMILES,inhibition (NSC [1]),inhibition (NSC [2]),inhibition (HEK-293T [3]),Activity (NSC [4]),inhibition [5],inhibition [6],inhibition (HEK-293T [7]),inhibition [8],inhibition (NSC [9]),inhibition (NSC [10])
N=C(CCl)NCCC[C@H](NC(=O)c1ccccc1)C(N)=O,inactive,Active,Active,–,–,–,–,–,–,–
O=C1CN=C(NCCc2c[nH]c3ccccc23)N1,–,–,–,Non-toxic,Active,Active,Active,Active,Active,Active
